Test results taken from patent publication US12275731B2, “Azaindole inhibitors of wild-type and mutant forms of LRRK2” (DANA-FARBER CANCER INSTITUTE, INC., priority 2018, dated 2025).

Assays:
Assay in all cases: KinomeScan profiling
Type in all cases: binding
PIK3CG = biological target: T1, PIK3CG (Homo sapiens, UniProt P48736); conditions: read-out: % control
T1 construct: purchased KinomeScan® (panel service)
Summary of the method: (§1)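 Selectivity was assessed by binding competition at 1 μM against 468 kinases. Values below 35% of control define an interaction.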

KIT(D816V) = biological target: T2, KIT(D816V) (Homo sapiens, UniProt P10721, D816V); conditions: read-out: % control
T2 construct: purchased KinomeScan®
T2 sequence (P10721 26-976 D816V): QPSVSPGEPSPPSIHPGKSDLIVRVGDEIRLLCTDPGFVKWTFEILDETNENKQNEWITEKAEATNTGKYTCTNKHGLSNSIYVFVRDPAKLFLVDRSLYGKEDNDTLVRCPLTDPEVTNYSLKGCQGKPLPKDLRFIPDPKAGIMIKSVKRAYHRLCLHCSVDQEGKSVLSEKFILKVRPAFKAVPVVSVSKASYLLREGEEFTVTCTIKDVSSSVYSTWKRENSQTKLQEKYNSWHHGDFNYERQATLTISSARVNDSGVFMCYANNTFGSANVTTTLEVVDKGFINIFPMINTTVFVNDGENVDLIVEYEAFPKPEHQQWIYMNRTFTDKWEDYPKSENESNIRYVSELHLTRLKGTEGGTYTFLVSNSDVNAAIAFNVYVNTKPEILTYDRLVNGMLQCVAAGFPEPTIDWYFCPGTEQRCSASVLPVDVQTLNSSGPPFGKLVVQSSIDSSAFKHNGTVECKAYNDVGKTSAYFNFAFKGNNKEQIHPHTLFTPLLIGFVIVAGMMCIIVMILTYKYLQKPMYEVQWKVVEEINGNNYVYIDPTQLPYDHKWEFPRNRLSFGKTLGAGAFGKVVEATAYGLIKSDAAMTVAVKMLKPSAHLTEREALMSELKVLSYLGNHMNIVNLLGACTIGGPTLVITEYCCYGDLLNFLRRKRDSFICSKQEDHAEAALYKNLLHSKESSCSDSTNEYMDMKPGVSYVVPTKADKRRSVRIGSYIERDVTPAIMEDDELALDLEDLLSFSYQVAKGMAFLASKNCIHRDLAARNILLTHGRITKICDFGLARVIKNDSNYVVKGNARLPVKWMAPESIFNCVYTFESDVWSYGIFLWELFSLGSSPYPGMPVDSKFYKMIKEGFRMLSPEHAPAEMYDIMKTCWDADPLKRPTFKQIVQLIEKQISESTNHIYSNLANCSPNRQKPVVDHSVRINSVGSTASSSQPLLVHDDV
Summary of the method: as §1

[1] = biological target: T3, RPS6KA4(Kin.Dom.1-N-terminal) (Homo sapiens, UniProt O75676); conditions: read-out: % control
T3 construct: RPS6KA4(Kin.Dom.1-N-terminal)
T3 sequence (O75676 33-301 limits assumed): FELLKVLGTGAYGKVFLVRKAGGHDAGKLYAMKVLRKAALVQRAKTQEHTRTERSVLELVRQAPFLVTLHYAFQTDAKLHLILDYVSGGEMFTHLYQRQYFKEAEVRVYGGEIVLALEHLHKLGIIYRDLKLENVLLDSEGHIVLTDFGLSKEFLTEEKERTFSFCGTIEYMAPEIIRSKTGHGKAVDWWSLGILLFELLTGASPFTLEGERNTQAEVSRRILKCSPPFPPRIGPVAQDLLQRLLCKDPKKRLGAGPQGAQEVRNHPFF
Summary of the method: as §1

ERK5 = ERK5 (Homo sapiens, UniProt Q13164); conditions: ERK5, 1 μM; read-out: % control
ERK5, sequence (Q13164 whole entry): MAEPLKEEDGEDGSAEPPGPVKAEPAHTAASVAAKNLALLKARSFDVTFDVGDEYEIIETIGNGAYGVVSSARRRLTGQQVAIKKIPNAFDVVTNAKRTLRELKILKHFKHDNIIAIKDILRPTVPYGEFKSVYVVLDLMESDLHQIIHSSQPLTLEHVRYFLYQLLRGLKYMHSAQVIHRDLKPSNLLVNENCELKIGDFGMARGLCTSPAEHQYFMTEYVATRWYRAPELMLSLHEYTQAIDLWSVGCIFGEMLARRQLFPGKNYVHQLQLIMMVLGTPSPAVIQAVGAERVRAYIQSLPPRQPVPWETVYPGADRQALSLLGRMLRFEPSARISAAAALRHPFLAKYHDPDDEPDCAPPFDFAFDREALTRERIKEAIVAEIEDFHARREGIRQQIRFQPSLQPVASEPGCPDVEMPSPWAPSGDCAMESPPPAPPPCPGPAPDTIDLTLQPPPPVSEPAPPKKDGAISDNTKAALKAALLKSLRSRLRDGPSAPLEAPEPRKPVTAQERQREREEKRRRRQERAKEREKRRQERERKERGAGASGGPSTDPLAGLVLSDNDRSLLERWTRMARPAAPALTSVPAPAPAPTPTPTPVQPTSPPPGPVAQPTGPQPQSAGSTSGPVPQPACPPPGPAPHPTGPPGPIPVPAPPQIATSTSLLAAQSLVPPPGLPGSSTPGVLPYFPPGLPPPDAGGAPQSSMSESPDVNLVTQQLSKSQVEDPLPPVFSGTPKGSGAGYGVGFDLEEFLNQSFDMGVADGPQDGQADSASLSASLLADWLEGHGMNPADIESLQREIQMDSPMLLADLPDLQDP
Summary of the method: as §1

MAPKAPK2 = MAPKAPK2 (Homo sapiens, UniProt P49137); conditions: MAPKAPK2, 1 μM; read-out: % control
MAPKAPK2, sequence (P49137 whole entry): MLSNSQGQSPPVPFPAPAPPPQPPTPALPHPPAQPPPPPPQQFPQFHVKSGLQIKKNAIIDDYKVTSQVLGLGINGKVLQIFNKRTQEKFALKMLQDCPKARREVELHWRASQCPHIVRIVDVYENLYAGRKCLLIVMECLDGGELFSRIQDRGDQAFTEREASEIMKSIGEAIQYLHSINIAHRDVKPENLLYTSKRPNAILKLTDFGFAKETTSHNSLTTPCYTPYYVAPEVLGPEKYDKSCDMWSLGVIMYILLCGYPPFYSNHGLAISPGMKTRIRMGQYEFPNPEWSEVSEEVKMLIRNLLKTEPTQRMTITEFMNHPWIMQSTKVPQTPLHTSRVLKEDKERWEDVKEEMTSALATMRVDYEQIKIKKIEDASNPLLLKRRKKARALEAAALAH
Summary of the method: as §1

[2] = biological target: T4, RSK3(Kin.Dom.1-N-terminal) (Homo sapiens, UniProt Q15349); conditions: read-out: % control
T4 construct: RSK3(Kin.Dom.1-N-terminal)
T4 sequence (Q15349 59-318 limits assumed): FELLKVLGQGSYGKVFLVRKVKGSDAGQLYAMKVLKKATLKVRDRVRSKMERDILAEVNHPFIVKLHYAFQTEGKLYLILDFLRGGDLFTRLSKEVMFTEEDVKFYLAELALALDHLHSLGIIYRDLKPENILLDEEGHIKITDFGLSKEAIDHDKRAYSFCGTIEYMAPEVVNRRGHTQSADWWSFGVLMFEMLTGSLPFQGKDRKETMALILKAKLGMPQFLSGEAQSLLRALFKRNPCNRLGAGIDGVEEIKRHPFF
Summary of the method: as §1

NEK5 = biological target: T5, NEK5 (Homo sapiens, UniProt Q6P3R8); conditions: NEK5, 1 μM; read-out: % control
T5 sequence (Q6P3R8 1-708): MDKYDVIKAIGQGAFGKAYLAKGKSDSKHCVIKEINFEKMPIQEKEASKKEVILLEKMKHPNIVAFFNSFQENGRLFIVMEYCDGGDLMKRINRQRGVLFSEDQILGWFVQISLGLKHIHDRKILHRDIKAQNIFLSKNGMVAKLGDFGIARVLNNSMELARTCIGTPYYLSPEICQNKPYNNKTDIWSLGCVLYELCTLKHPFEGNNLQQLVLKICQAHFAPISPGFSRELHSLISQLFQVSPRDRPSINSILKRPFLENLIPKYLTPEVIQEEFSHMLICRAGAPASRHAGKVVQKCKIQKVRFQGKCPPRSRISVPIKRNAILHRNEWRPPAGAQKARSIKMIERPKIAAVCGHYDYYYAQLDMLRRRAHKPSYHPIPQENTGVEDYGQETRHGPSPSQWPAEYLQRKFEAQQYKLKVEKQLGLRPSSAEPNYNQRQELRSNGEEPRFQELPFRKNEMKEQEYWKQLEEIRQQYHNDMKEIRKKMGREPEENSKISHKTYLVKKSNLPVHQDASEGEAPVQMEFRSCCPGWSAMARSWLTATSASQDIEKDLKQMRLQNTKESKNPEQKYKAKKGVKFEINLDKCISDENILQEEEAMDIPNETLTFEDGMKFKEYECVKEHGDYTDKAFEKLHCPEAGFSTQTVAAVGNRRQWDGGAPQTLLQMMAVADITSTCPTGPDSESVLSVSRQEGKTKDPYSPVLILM
Summary of the method: as §1

ULK2 = biological target: T6, ULK2 (Homo sapiens, UniProt Q8IYT8); conditions: ULK2, 1 μM; read-out: % control
T6 sequence (Q8IYT8 1-1036): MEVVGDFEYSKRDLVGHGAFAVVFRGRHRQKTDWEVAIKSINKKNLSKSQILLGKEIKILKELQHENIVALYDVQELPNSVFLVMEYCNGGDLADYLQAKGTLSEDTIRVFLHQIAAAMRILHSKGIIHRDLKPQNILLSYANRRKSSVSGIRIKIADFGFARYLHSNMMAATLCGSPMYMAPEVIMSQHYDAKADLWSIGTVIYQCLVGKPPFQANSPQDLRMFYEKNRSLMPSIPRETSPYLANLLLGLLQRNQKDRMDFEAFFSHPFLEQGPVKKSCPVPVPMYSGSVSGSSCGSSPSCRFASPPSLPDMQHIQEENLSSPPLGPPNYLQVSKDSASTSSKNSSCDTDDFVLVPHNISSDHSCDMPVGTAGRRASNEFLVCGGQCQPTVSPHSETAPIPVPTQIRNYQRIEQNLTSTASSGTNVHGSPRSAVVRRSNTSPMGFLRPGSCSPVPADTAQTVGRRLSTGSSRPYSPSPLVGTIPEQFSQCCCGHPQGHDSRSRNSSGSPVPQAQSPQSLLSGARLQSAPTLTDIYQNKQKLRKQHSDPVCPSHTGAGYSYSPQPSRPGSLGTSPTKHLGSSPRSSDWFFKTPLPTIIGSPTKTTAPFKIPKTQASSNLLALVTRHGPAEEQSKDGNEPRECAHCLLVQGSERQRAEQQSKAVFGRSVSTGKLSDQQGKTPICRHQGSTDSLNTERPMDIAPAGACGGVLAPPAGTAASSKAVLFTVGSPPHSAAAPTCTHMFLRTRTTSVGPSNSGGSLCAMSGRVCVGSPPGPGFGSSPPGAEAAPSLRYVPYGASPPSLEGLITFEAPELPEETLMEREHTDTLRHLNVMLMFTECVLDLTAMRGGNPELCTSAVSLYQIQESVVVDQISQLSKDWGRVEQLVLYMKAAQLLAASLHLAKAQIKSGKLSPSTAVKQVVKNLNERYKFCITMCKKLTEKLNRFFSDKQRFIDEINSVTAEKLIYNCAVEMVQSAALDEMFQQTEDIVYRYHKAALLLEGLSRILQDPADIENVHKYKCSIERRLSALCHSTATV
Summary of the method: as §1

STK35 = biological target: T7, STK35 (Homo sapiens, UniProt Q8TDR2); conditions: STK35, 1 μM; read-out: % control
T7 construct: purchased KinomeScan® (panel service)
T7 sequence (Q8TDR2 whole entry): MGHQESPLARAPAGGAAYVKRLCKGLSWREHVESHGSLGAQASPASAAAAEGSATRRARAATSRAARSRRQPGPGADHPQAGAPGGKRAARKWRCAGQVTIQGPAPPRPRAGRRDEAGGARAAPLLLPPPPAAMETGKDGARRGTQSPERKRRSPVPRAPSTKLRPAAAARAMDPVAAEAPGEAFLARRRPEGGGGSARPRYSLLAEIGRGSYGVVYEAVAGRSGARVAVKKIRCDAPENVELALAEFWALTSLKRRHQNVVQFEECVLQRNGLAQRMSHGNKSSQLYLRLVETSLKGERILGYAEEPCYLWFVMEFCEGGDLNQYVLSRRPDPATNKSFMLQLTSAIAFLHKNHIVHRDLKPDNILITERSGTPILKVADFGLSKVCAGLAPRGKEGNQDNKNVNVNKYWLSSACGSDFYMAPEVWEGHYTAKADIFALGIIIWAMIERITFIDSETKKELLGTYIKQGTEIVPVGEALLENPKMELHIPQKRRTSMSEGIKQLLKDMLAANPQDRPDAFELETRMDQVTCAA
Summary of the method: as §1

INSR = biological target: T8, INSR (Homo sapiens, UniProt P06213); conditions: read-out: % control
T8 construct: purchased KinomeScan®
T8 sequence (P06213 28-1382): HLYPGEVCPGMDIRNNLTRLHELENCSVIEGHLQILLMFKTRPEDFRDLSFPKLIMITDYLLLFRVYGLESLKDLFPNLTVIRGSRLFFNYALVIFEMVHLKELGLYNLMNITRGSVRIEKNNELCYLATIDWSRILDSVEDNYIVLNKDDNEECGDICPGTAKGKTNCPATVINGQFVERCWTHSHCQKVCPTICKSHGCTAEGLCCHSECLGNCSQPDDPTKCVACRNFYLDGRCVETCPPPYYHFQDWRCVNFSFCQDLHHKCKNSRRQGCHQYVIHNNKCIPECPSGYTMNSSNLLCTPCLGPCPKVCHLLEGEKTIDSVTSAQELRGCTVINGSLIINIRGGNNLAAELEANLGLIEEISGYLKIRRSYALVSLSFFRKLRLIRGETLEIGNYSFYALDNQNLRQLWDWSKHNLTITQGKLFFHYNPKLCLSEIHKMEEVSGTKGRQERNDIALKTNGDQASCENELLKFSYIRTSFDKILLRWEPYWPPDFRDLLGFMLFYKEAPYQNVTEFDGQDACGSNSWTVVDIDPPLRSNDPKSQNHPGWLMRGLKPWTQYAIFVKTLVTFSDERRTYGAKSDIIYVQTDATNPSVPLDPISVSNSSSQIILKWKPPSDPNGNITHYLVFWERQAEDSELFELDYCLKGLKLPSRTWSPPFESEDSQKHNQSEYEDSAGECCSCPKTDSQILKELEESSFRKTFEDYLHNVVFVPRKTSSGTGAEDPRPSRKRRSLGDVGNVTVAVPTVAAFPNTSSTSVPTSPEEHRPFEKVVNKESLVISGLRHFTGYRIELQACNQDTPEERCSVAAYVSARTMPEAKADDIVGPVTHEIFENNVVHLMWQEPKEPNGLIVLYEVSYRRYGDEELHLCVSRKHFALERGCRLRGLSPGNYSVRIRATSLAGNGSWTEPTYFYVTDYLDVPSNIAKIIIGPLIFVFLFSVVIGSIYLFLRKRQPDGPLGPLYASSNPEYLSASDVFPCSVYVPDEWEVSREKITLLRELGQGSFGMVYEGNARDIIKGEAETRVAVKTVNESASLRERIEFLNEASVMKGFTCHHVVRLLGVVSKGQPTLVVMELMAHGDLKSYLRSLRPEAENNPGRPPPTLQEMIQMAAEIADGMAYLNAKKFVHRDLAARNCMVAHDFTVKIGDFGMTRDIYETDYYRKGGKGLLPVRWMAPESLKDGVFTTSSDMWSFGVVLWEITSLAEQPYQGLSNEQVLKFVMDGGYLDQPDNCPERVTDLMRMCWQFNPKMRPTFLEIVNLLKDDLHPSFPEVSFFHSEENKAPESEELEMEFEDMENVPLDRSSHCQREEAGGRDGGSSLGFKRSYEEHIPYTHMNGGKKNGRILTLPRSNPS
Summary of the method: as §1

`O=C(c1ccc(-c2cnc3[nH]cc(Cl)c3c2NC2CCCC2)cc1)N1CCC(N2CCOCC2)CC1` [Compound 101, (4-(3-chloro-4-(cyclopentylamino)-1H-pyrrolo[2,3-b]pyridin-5-yl)phenyl)(4-morpholinopiperidin-1-yl)methanone] gave a remaining binding at 1 µM (PIK3CG) of 95%, a remaining binding at 1 µM (KIT(D816V)) of 95% and a remaining binding at 1 µM [1] of 84%. For the same compound, the remaining binding at 1 µM (ERK5) was 100%, the remaining binding at 1 µM (MAPKAPK2) was 51% and the remaining binding at 1 µM [2] was 66%. The remaining binding at 1 µM (NEK5) was 99%, the remaining binding at 1 µM (ULK2) was 98% and the remaining binding at 1 µM (STK35) was 99%. The remaining binding at 1 µM (INSR) was 68%.
Work on `CNc1c(-c2cnn([C@H]3CCN(C(C)=O)C[C@@H]3F)c2)cnc2[nH]cc(Cl)c12` [Compound 77, 1-((3S,4S)-4-(4-(3-chloro-4-(methylamino)-1H-pyrrolo[2,3-b]pyridin-5-yl)-1H-pyrazol-1-yl)-3-fluoropiperidin-1-yl)ethan-1-one] yielded a remaining binding at 1 µM (PIK3CG) of 99%, a remaining binding at 1 µM (KIT(D816V)) of 46% and a remaining binding at 1 µM [1] of 97%. For the same compound, the remaining binding at 1 µM (ERK5) was 100%, the remaining binding at 1 µM (MAPKAPK2) was 100% and the remaining binding at 1 µM [2] was 80%. It also gave a remaining binding at 1 µM (NEK5) of 79%, a remaining binding at 1 µM (ULK2) of 15% and a remaining binding at 1 µM (STK35) of 63%. For the same compound, the remaining binding at 1 µM (INSR) was 53%.
Compound `CNc1c(-c2ccc(C(=O)N3CCC(N4CCOCC4)CC3)cc2)cnc2[nH]cc(Cl)c12` [Compound 96, (4-(3-chloro-4-(methylamino)-1H-pyrrolo[2,3-b]pyridin-5-yl)phenyl)(4-morpholinopiperidin-1-yl)methanone] has a remaining binding at 1 µM (PIK3CG) of 100%, a remaining binding at 1 µM (KIT(D816V)) of 86% and a remaining binding at 1 µM [1] of 100%. It also gave a remaining binding at 1 µM (ERK5) of 81%, a remaining binding at 1 µM (MAPKAPK2) of 100% and a remaining binding at 1 µM [2] of 78%. For the same compound, the remaining binding at 1 µM (NEK5) was 99%, the remaining binding at 1 µM (ULK2) was 8.7% and the remaining binding at 1 µM (STK35) was 50%. The remaining binding at 1 µM (INSR) was 71%.
